The results in this text go back to patent publication US20250179032A1, “HETEROCYCLIC INHIBITORS OF GLUT9 FOR TREATMENT OF DISEASE” (HORIZON THERAPEUTICS IRELAND DAC, priority 2022, published 2025).

Like-named read-outs stand apart in the source and are kept apart here.

In the assay the target is T1, H. sapiens SLC2A9 variant 2 (GLUT9B) (Homo sapiens, UniProt Q9NRM0).
T1 sequence (Q9NRM0 1-511 isoform Q9NRM0-2): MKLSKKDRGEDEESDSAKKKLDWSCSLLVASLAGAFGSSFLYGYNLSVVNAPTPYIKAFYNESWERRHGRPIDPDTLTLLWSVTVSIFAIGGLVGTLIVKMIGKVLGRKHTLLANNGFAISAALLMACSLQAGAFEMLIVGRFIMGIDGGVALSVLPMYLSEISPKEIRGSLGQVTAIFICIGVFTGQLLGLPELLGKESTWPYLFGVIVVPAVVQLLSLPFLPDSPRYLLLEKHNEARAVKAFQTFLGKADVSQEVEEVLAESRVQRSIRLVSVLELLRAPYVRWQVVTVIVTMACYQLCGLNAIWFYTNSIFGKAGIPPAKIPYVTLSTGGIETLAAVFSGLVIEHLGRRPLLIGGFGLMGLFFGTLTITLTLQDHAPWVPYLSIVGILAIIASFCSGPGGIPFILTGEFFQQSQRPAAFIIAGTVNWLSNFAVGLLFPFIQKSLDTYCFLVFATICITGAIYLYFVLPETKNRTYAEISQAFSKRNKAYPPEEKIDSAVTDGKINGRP
The assay is described as follows: GLUT9 functional assay: uric acid uptake in HEK293T cells, allantoin formation by MS/MS as proxy of GLUT9B inhibition. Type of assay: cell-based. The note with it: HEK293T cells stably expressing GLUT9B and transiently A. oryzae uricase, uric acid 0.3 mM, 37° C. The gist of the method:
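HEK293T cells stably expressing human GLUT9B and transiently expressing A. oryzae uricase, exposed across a 12-point curve to 0.3 mM uric acid (Km) in sodium gluconate buffer pH 7.4 for 15 or 60 min at 37° C. Allantoin in lysates quantified by RapidFire MS/MS (positive ion) against a matrix-matched standard curve as proxy for uptake.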

The mark [1] stands for this setting: 60 minute assay, read-out: 60 min IC50.
The mark [2] stands for this setting: 15 minute assay, read-out: 15 min IC50.

As to `COCCCc1cnc(-c2cc(F)c3occc3c2)c(N2CC[C@H](C(=O)O)C[C@@H]2C)n1` (single isomer, unassigned) [Compound 229], under setting [1], the IC50 was under 500 nM. Regarding `CCCCc1cnc(-c2ccc(F)c(OC)c2)c(N2CCC(C(=O)O)CC2)n1` [Compound 2, 1-(6-Butyl-3-(4-Fluoro-3-Methoxyphenyl)Pyrazin-2-yl)Piperidine-4-carboxylic acid], the IC50 under setting [2] is over 2000 nM. For `COCCOc1ccc(-c2ncc(COCC(F)(F)F)nc2N2CCC(C(=O)O)CC2)cc1` [Compound 33, 1-(3-(4-(2-methoxyethoxy)phenyl)-6-((2,2,2-trifluoroethoxy)methyl)pyrazin-2-yl)piperidine-4-carboxylic acid], under setting [2], the IC50 lay within 500 to 2000 nM. The same measure, in the same setting: in the case of `O=C(O)C1CCN(c2nc(CCCCC(F)(F)F)cnc2-c2ccc3occc3c2)CC1` [Compound 130, 1-(3-(benzofuran-5-yl)-6-(5,5,5-Trifluoropentyl)Pyrazin-2-yl)Piperidine-4-carboxylic acid] it was under 500 nM. For the compound `COCCCc1cnc(-c2ccc3ncnn3c2)c(N2CCC(C(=O)O)CC2)n1` [Compound 195, 1-(3-([1,2,4]triazolo[1,5-a]pyridin-6-yl)-6-(3-methoxypropyl)pyrazin-2-yl)piperidine-4-carboxylic acid], the IC50 under setting [1] was over 2000 nM. For `COCCCc1cnc(-c2ccc3nccn3n2)c(N2CCC(C(=O)O)CC2)n1` [Compound 211, 1-(3-(imidazo[1,2-b]pyridazin-6-yl)-6-(3-methoxypropyl)pyrazin-2-yl)piperidine-4-carboxylic acid], under setting [1], the IC50 was over 2000 nM.

Consider `O=C(O)C1(O)CCN(c2nc(CCCC(F)(F)F)cnc2-c2ccc3c(c2)OCO3)CC1` [Compound 166, 1-(3-(benzo[d][1,3]dioxol-5-yl)-6-(4,4,4-trifluorobutyl)pyrazin-2-yl)-4-hydroxypiperidine-4-carboxylic acid], for which the half-inhibitory concentration (IC50) under setting [2] is 500 to 2000 nM.

In the case of `O=C(O)C1(O)CCN(c2nc(CCCC(F)(F)F)cnc2-c2ccc3occc3c2)CC1` [Compound 174, 1-(3-(benzofuran-5-yl)-6-(4,4,4-trifluorobutyl)pyrazin-2-yl)-4-hydroxypiperidine-4-carboxylic acid], under setting [2], the half-maximal inhibitory concentration (IC50) lay within 500 to 2000 nM.

As to `COc1ccc(-c2ncc(CCCC(F)(F)F)nc2N2CCC(C(=O)O)CC2)cc1` [Compound 31, 1-(3-(4-methoxyphenyl)-6-(4,4,4-trifluorobutyl)pyrazin-2-yl)piperidine-4-carboxylic acid], under setting [2], the 50% inhibitory concentration (IC50) was under 500 nM. For `COCCCc1cnc(-c2cnc3nn(C)cc3c2)c(N2CCC(C(=O)O)CC2)n1` [Compound 218, 1-(6-(3-methoxypropyl)-3-(2-methyl-2H-pyrazolo[3,4-b]pyridin-5-yl)pyrazin-2-yl)piperidine-4-carboxylic acid], the IC50 under setting [1] was over 2000 nM. Turning to `COCCCc1cnc(-c2ccc3c(c2)OCO3)c(N2CCC(C(=O)O)CC2)n1` [Compound 189, 1-(3-(benzo[d][1,3]dioxol-5-yl)-6-(3-Methoxypropyl)Pyrazin-2-yl)piperidine-4-carboxylic acid], under setting [1], the IC50 was under 500 nM. For the compound `COCCOc1ccc(-c2ncc(COCC(F)(F)F)nc2N2CCC(C(=O)NS(C)(=O)=O)CC2)cc1` [Compound 67, 1-(3-(4-(2-methoxyethoxy)phenyl)-6-((2,2,2-trifluoroethoxy)methyl)pyrazin-2-yl)-N-(methylsulfonyl)piperidine-4-carboxamide], the IC50 under setting [2] is over 2000 nM. For `COCCCc1cnc(-c2cc(C(F)(F)F)nn2C)c(N2CCC(C(=O)O)CC2)n1` [Compound 201, 1-(6-(3-methoxypropyl)-3-(1-methyl-3-(trifluoromethyl)-1H-pyrazol-5-yl)pyrazin-2-yl)piperidine-4-carboxylic acid], the IC50 under setting [1] was over 2000 nM. With `CCC(F)(F)Cc1cnc(-c2ccc(OCCOC)cc2)c(N2CCC(C(=O)O)CC2)n1` [Compound 148, 1-(6-(2,2-difluorobutyl)-3-(4-(2-methoxyethoxy)phenyl)pyrazin-2-yl)piperidine-4-carboxylic acid], the IC50 under setting [2] was over 2000 nM. For the compound `COCCCCc1cnc(-c2ccc3occc3c2)c(N2CCC(C(=O)O)CC2)n1` [Compound 138, 1-(3-(benzofuran-5-yl)-6-(4-methoxybutyl)pyrazin-2-yl)piperidine-4-carboxylic acid], the IC50 is, setting by setting: under setting [2], under 500 nM; under setting [1], under 500 nM. For the compound `O=C(O)C1CCN(c2nc(COCC(F)(F)F)cnc2-c2ccc(OCC3CC3)cc2)CC1` [Compound 77, 1-(3-(4-(cyclopropylmethoxy)phenyl)-6-((2,2,2-trifluoroethoxy)methyl)pyrazin-2-yl)piperidine-4-carboxylic acid], under setting [2], the IC50 was over 2000 nM. Consider `CCCCc1cnc(-c2ccc(OC)cc2)c(-c2ccc3c(c2)CNC3=O)c1` [Compound 27, 5-(5-butyl-2-(4-methoxyphenyl)pyridin-3-yl)isoindolin-1-one], for which, under setting [2], the IC50 lay within 500 to 2000 nM. For the compound `COCCCCc1cnc(-c2ccc(OCCOC)cc2)c(N2CCC(C(=O)O)CC2)n1` [Compound 141, 1-(6-(4-methoxybutyl)-3-(4-(2-methoxyethoxy)phenyl)pyrazin-2-yl)piperidine-4-carboxylic acid], the IC50 under setting [2] is under 500 nM. Take `CCCCc1cnc(-c2ccc(OC)cc2)c(-c2ccc3c(c2)COC3=O)n1` [Compound 35, 5-(6-butyl-3-(4-methoxyphenyl)pyrazin-2-yl)isobenzofuran-1(3H)-one]: the half-maximal inhibitory concentration (IC50) under setting [2] is 500 to 2000 nM.

Consider `O=C(O)C1CCN(c2nc(CCC(F)(F)F)cnc2-c2ccc3c(c2)CCO3)CC1` [Compound 119, 1-(3-(2,3-dihydrobenzofuran-5-yl)-6-(3,3,3-trifluoropropyl)pyrazin-2-yl)piperidine-4-carboxylic acid], for which, under setting [2], the IC50 was under 500 nM.

For `COCCCc1cnc(-c2cc(F)c3occc3c2)c(N2CCC(C)(C(=O)O)CC2)n1` [Compound 184, 1-(3-(7-fluorobenzofuran-5-yl)-6-(3-methoxypropyl)pyrazin-2-yl)-4-methylpiperidine-4-carboxylic acid], the concentration for half-maximal inhibition (IC50) under setting [1] was under 500 nM. Turning to `COCCOCCCc1cnc(-c2cc(F)c3occc3c2)c(N2CCC(C(=O)O)CC2)n1` [Compound 118, 1-(3-(7-fluorobenzofuran-5-yl)-6-(3-(2-methoxyethoxy)propyl)pyrazin-2-yl)piperidine-4-carboxylic acid], the half-maximal inhibitory concentration (IC50) under setting [2] was 500 to 2000 nM. With `Fc1cc(-c2ncc(COCC(F)(F)F)nc2N2CCC(c3nn[nH]n3)CC2)cc2ccoc12` [Compound 65, 3-(4-(2H-tetrazol-5-yl)piperidin-1-yl)-2-(7-fluorobenzofuran-5-yl)-5-((2,2,2-trifluoroethoxy)methyl)pyrazine], the 50% inhibitory concentration (IC50) under setting [2] is under 500 nM. Turning to `O=C(O)C1(O)CCN(c2nc(CCCC(F)(F)F)cnc2-c2cc(F)c3occc3c2)CC1` [Compound 165, 1-(3-(7-fluorobenzofuran-5-yl)-6-(4,4,4-trifluorobutyl)pyrazin-2-yl)-4-hydroxypiperidine-4-carboxylic acid], the concentration for half-maximal inhibition (IC50) under setting [2] is under 500 nM.

`O=C(O)C1CCN(c2nc(CCCC(F)F)cnc2-c2ccc3c(c2)CCO3)CC1` [Compound 143, 1-(6-(4,4-difluorobutyl)-3-(2,3-dihydrobenzofuran-5-yl)pyrazin-2-yl)piperidine-4-carboxylic acid]: under setting [2], the IC50 is under 500 nM. With `COCCCc1cnc(-c2cc(F)c3occc3c2)c(N2CC[C@@H](C(=O)O)C[C@@H]2C)n1` (single isomer, unassigned) [Compound 183], under setting [1], the IC50 was under 500 nM. With `COCCCc1cnc(-c2cc(F)c3c(c2)CCO3)c(N2CCC(C)(C(=O)O)CC2)n1` [Compound 192, 1-(3-(7-fluoro-2,3-dihydrobenzofuran-5-yl)-6-(3-methoxypropyl)pyrazin-2-yl)-4-methylpiperidine-4-carboxylic acid], the IC50 under setting [1] was under 500 nM.

Consider `CCC(F)(F)Cc1cnc(-c2ccc(OCC3CC3)cc2)c(N2CCC(C(=O)O)CC2)n1` [Compound 150, 1-(3-(4-(cyclopropylmethoxy)phenyl)-6-(2,2-difluorobutyl)pyrazin-2-yl)piperidine-4-carboxylic acid], for which the IC50 by setting is: under setting [2], 500 to 2000 nM; under setting [1], over 2000 nM. For the compound `COCCN(C)c1ccc(-c2ncc(CCC(F)(F)F)nc2N2CCC(C(=O)O)CC2)cc1` [Compound 104, 1-(3-(4-((2-methoxyethyl)(methyl)amino)phenyl)-6-(3,3,3-trifluoropropyl)pyrazin-2-yl)piperidine-4-carboxylic acid], the IC50 under setting [2] fell in the range of 500 to 2000 nM. Consider `COCCOc1ccc(-c2ncc(CCC(C)(F)F)nc2N2CCC(C(=O)O)CC2)cc1` [Compound 137, 1-(6-(3,3-difluorobutyl)-3-(4-(2-methoxyethoxy)phenyl)pyrazin-2-yl)piperidine-4-carboxylic acid], for which the IC50 under setting [2] is 500 to 2000 nM. Take `O=C(O)C1CCN(c2nc(CCCC(F)(F)F)cnc2-c2ccc3ncoc3c2)CC1` [Compound 109, 1-(3-(benzo[d]oxazol-6-yl)-6-(4,4,4-trifluorobutyl)pyrazin-2-yl)piperidine-4-carboxylic acid]: the IC50 under setting [2] lay within 500 to 2000 nM.

The term IC50 denotes the concentration that inhibits the measured activity by half.
